The results in this text go back to US20240043420A1, “7-AZAINDOLE COMPOUNDS FOR INHIBITION OF BCR-ABL TYROSINE KINASES” (EnLiven Therapeutics, Inc., priority 2020, published 2024).

One assay deals with ABL1 (T315I) (Homo sapiens, UniProt P00519, T315I). The experiment in a line: Luminescence-based ABL kinase assay (ADP-Glo, 300 μM ATP), T315I mutant. The class given is biochemical. As to the method: (§1) Kinase activity of ABL1 was measured using the ADP-Glo system (Promega), which measures formation of ADP using a luminescence-based method. Compounds were serially diluted in DMSO. 20 nL of compound or DMSO only (high control, HC) were added to a 384-well plate (OptiPlate-384, PerkinElmer) using an Echo550 liquid handler (Labcyte). 15 μL of kinase solution (10 mM MgCl2, 0.01% Brij-35, 2 mM DTT, 0.05% BSA, 1 mM EGTA, 50 mM HEPES pH 7.5, and 3.325 nM ABL1 [Carna Biosciences]) were added to each well of the 384-well plate containing the compounds. No enzyme control wells were included (low control, LC). The plate was incubated at room temperature for 30 minutes. 5 μL of a second solution containing 10 mM MgCl2, 0.01% Brij-35, 2 mM DTT, 0.05% BSA, 1 mM EGTA, 50 mM HEPES pH 7.5, 6 μM Peptide 2 (Perkin Elmer, Cat No 760346), and 1.2 mM ATP were added to each well to start the kinase reaction. The plate was incubated for 90 minutes at room temperature. 20 μL of ADP-Glo reagent (Promega) were then added to each well and the plate was incubated for 40 minutes at room temperature. 40 μL of kinase detection reagent (Promega) was added to each well and the plate was incubated for an additional 45 minutes at room temperature. During this step, ADP was converted to ATP, a substrate for luciferase, to produce luminescence signal. Luminescence was measured on an Envision plate reader (Perkin Elmer). Luminescence signal positively correlates with kinase activity. The percent kinase activity was calculated as follows: percent kinase activity=100×(Lumsample−LumLC)/(LumHC−LumLC). As noted above, DMSO only and no enzyme wells were used as high and low controls, respectively. IC50 values were calculated using the XLFit software.

A further assay addresses T1, ABL1 (Homo sapiens, UniProt P00519).
T1 construct: purchased Carna Biosciences
The experiment in a line: Luminescence-based ABL kinase assay (ADP-Glo, 300 μM ATP). The assay is classed as biochemical. As to the method: as §1
On the technique in general: In ADP-Glo the light output rises with the ADP produced.

Where only a bound is given, the exact number is not on record here.

Usually IC50 stands for the concentration needed to halve the response being measured. Read a low IC50 as inhibition by little substance. `COc1ccccc1-c1c[nH]c2nc(NC(=O)[C@H]3C[C@@H]3CC#N)ccc12` (relative stereo) [Compound 107, trans-2-(cyanomethyl)-N-(3-(2-methoxyphenyl)-1H-pyrrolo[2,3-b]pyridin-6-yl)cyclopropane-1-carboxamide]: the IC50 on ABL1 (T315I) came out at 19.5 nM; against ABL1, 151 nM.
For `O=C(Nc1ccc2c(-c3cccnc3OCC3CC3)c[nH]c2n1)C1CC1F` (single isomer, unassigned) [Example S148, Enantiomer 1, N-(3-(2-(cyclopropylmethoxy)pyridin-3-yl)-1H-pyrrolo[2,3-b]pyridin-6-yl)-2-fluorocyclopropane-1-carboxamide Enantiomer 1] the same measures were 1810 nM and 408 nM.
`COc1cccc(OC)c1-c1c[nH]c2nc(NC(=O)C3CC3CN3CCNCC3)ccc12` (single isomer, unassigned) [Example S150, Enantiomer 2, N-[3-(2,6-dimethoxyphenyl)-1H-pyrrolo[2,3-b]pyridin-6-yl]-2-(piperazin-1-ylmethyl)cyclopropane-1-carboxamide]: the IC50 against ABL1 (T315I) was 27.2 nM; at ABL1 it was 30 nM.
As for `COc1c(-c2c[nH]c3nc(NC(=O)C4CC4)ccc23)ccc2[nH]ncc12` [Compound 16, N-[3-(4-methoxy-1H-indazol-5-yl)-1H-pyrrolo[2,3-b]pyridin-6-yl]cyclopropanecarboxamide], the IC50 on ABL1 (T315I) and against ABL1 was greater than 10000 nM throughout.
As for `O=C(Nc1ccc2c(-c3ccc4[nH]ccc4c3)c[nH]c2n1)C1CC1` [Compound 18, N-[3-(1H-indol-5-yl)-1H-pyrrolo[2,3-b]pyridin-6-yl]cyclopropanecarboxamide], the IC50 against ABL1 (T315I) was determined as 14.5 nM; at ABL1, 33 nM.
Taken in the same sequence, the figures for `O=C(Nc1ccc2c(-c3ccc4cc[nH]c4c3)c[nH]c2n1)C1CC1` [Compound 20, N-(3-(1H-indol-6-yl)-1H-pyrrolo[2,3-b]pyridin-6-yl)cyclopropanecarboxamide] were 27.7 nM and 110 nM.
On to `O=C(Nc1ccc2c(-c3ccc4c(c3)NCC4)c[nH]c2n1)C1CC1` [Compound 25, N-[3-(2,3-dihydro-1H-indol-6-yl)-1H-pyrrolo[2,3-b]pyridin-6-yl]cyclopropanecarboxamide], for which the IC50 against ABL1 (T315I) is 74.3 nM; on ABL1, 776 nM.
In the case of `CNc1ccc(-c2c[nH]c3nc(NC(=O)C4CC4)ccc23)c(OC)n1` [Compound 30, N-[3-[2-methoxy-6-(methylamino)pyridin-3-yl]-1H-pyrrolo[2,3-b]pyridin-6-yl]cyclopropanecarboxamide], the IC50 against ABL1 (T315I) is 90.2 nM; at ABL1, 148 nM.
On to `Cc1cc(N)ncc1-c1c[nH]c2nc(NC(=O)C3CC3)ccc12` [Compound 34, N-[3-(6-amino-4-methylpyridin-3-yl)-1H-pyrrolo[2,3-b]pyridin-6-yl]cyclopropanecarboxamide], for which the IC50 at ABL1 (T315I) amounted to 731 nM; on ABL1 it was 159 nM.
Take `CNc1cc(C)c(-c2c[nH]c3nc(NC(=O)C4CC4)ccc23)cn1` [Compound 35, N-[3-[4-methyl-6-(methylamino)pyridin-3-yl]-1H-pyrrolo[2,3-b]pyridin-6-yl]cyclopropanecarboxamide]: the figures for the IC50 against ABL1 (T315I) and on ABL1 were 774 nM and 599 nM, respectively.
In the case of `Nc1ncccc1-c1c[nH]c2nc(NC(=O)C3CC3)ccc12` [Compound 36, N-[3-(2-aminopyridin-3-yl)-1H-pyrrolo[2,3-b]pyridin-6-yl]cyclopropanecarboxamide], the IC50 against ABL1 (T315I) worked out at 690 nM; at ABL1, 202 nM.
`Nc1cccc(-c2c[nH]c3nc(NC(=O)C4CC4)ccc23)n1` [Compound 38, N-(3-(6-aminopyridin-2-yl)-1H-pyrrolo[2,3-b]pyridin-6-yl)cyclopropanecarboxamide]: the IC50 is 332 nM on ABL1 (T315I) and 689 nM on ABL1.
For `CNc1cccc(-c2c[nH]c3nc(NC(=O)C4CC4)ccc23)n1` [Compound 39, N-(3-(6-(methylamino)pyridin-2-yl)-1H-pyrrolo[2,3-b]pyridin-6-yl)cyclopropanecarboxamide] the same measures were 245 nM and 195 nM.
Taken in the same sequence, the figures for `Nc1ccc(-c2c[nH]c3nc(NC(=O)C4CC4)ccc23)cn1` [Compound 40, N-[3-(6-aminopyridin-3-yl)-1H-pyrrolo[2,3-b]pyridin-6-yl]cyclopropanecarboxamide] were 170 nM and 121 nM.
For `O=C(Nc1ccc2c(-c3c(F)cccc3F)c[nH]c2n1)C1CC1` [Compound 46, N-(3-(2,6-difluorophenyl)-1H-pyrrolo[2,3-b]pyridin-6-yl)cyclopropanecarboxamide] the same measures were 20.6 nM and 86.4 nM.
Take `O=C(Nc1ccc2c(-c3ccn4ccnc4c3)c[nH]c2n1)C1CC1` [Compound 55, N-(3-[imidazo[1,2-a]pyridin-7-yl]-1H-pyrrolo[2,3-b]pyridin-6-yl)cyclopropanecarboxamide]: the IC50 at ABL1 (T315I) amounted to 1030 nM; against ABL1 it was 114 nM.
For `Cn1cc(-c2c[nH]c3nc(NC(=O)C4CC4)ccc23)ccc1=O` [Compound 57, N-[3-(1-methyl-6-oxopyridin-3-yl)-1H-pyrrolo[2,3-b]pyridin-6-yl]cyclopropanecarboxamide], the IC50 at ABL1 (T315I) amounted to 3870 nM; at ABL1, 1090 nM.
Taken in the same sequence, the figures for `COc1cc2cn[nH]c2cc1-c1c[nH]c2nc(NC(=O)[C@H]3C[C@H]3F)ccc12` [Compound 59, (1R,2R)-2-fluoro-N-[3-(5-methoxy-1H-indazol-6-yl)-1H-pyrrolo[2,3-b]pyridin-6-yl]cyclopropane-1-carboxamide] were 11 nM and 8.62 nM.
For `CN(C)c1ncccc1-c1c[nH]c2nc(NC(=O)C3CC3)ccc12` [Compound 65, N-(3-(2-(dimethylamino)pyridin-3-yl)-1H-pyrrolo[2,3-b]pyridin-6-yl)cyclopropanecarboxamide] the same measures were 8700 nM and 158 nM.
For `COc1c(-c2c[nH]c3nc(NC(=O)[C@@H]4C[C@@H]4F)ccc23)ccc2nccn12` [Compound 73, (1S,2S)-2-fluoro-N-(3-(5-methoxyimidazo[1,2-a]pyridin-6-yl)-1H-pyrrolo[2,3-b]pyridin-6-yl)cyclopropane-1-carboxamide] the same measures were greater than 10000 nM and 2460 nM.
For the compound `COc1ncc(F)cc1-c1c[nH]c2nc(NC(=O)NCCN(C)C)ccc12` [Compound 80, 3-[2-(dimethylamino)ethyl]-1-[3-(5-fluoro-2-methoxypyridin-3-yl)-1H-pyrrolo[2,3-b]pyridin-6-yl]urea], the IC50 against ABL1 (T315I) came out at 659 nM; against ABL1, 1050 nM.
Take `COc1ncccc1-c1c(C)[nH]c2nc(NC(=O)[C@@H]3C[C@@H]3F)ccc12` [Compound 89, (1S,2S)-2-fluoro-N-(3-(2-methoxypyridin-3-yl)-2-methyl-1H-pyrrolo[2,3-b]pyridin-6-yl)cyclopropane-1-carboxamide]: the 50% inhibitory concentration (IC50) was 219 nM at ABL1 (T315I) and 337 nM at ABL1.
As to `COc1nc2[nH]ccc2cc1-c1c[nH]c2nc(NC(=O)[C@@H]3C[C@@H]3F)ccc12` [Compound 93, (1S,2S)-2-fluoro-N-(6′-methoxy-1H,1′H-[3,5′-bipyrrolo[2,3-b]pyridin]-6-yl)cyclopropane-1-carboxamide], the figures for the IC50 at ABL1 (T315I) and against ABL1 were 2.94 nM and 5.3 nM, respectively.
